Results: patent US20230192653A1, “Novel Therapeutic Methods” (GUANGZHOU MAXINOVEL PHARMACEUTICALS CO., LTD., priority 2020, published 2023)
“And” between values parts separate entries of the source, which are not always exact repeats. Equal entries are not always repeated. “Also recorded” adds a separate entry of the source.

How the values were obtained:
Type in all cases: in vivo, human
[1] = test system: Pancreatic Cancers (patient tumor cells in mini-PDX capsules); experiment: Mini-PDX assay, pancreatic cancers; conditions: Compound 1 12 mg per kg oral once daily 7 days, effective = P ≤ 0.05, per patient sample
Description: (§1) A mini patient-derived xenograft (mini-PDX) is used to assess the sensitivity of different tumors to treatment with Compound 1 (MAX-40279). In this experiment, clinical tumor samples from patients are treated in the mini-PDX by oral administration of Compound 1, and FGFR1OP2 expression level in those samples is analyzed.
(§2) Tumor tissue acquisition is approved by the ethics committees of each participating hospital and agreed to by each patient via written informed consent and is carried out according to state and institutional regulations on experimental use of human tissues. The patient samples are corrected if tumors >500 mm^3 in size with a necrotic area <30% are used. […]
(§3) Thereafter, the implanted capsules are removed, and tumor cell proliferation is evaluated using the CellTiter Glo Luminescent Cell Viability Assay kit (G7571, Promega, Madison, Wis., US) as instructed by the manufacturer. Luminescence is measured in terms of relative luminance unit (RLU) using a spectrophotometer (SpectraMax M3, Molecular Devices, Sunnyvale, Calif., US). Tumor cell growth inhibition (TCGI) (%) is calculated using the formula: TCGI %=(1−[mean RLU of the treatment group on day 7-mean RLU on day 0]/[Mean RLU of vehicle group on day 7−Mean RLU on day 0])×100%, Each experiment is done in sextuplicate and mean values are reported. […]

[2] = test system: clinical tumor samples from patients; experiment: Mini-PDX assay, all tumor samples from patients
Description: FIG. 1 is the RLU (ATP Enzyme activity) of cells from mini-PDX vehicles. The cancer cells derived from patients were embedded in the mini-PDX vehicles and implanted in the mice for cultivating 7 days. The mice were treated with MAX-40279(12mpk, PO, BID) or not. After 7 days, cells in mini-PDX vehicles were collected and ATP Enzyme activity was used to represent the cell viability.
A mini patient-derived xenograft (mini-PDX) is used to assess the sensitivity of different tumors to treatment with Compound 1 (MAX-40279). In this experiment, clinical tumor samples from patients are treated in the mini-PDX by oral administration of Compound 1, and FGFR1OP2 expression level in those samples is analyzed. […]
as §3

[3] = test system: Liver Cancers (patient tumor cells in mini-PDX capsules); experiment: Mini-PDX assay, liver cancers; conditions: Compound 1 12 mg per kg oral once daily 7 days, effective = P ≤ 0.05, per patient sample
Description: as §1, §2, §3

[4] = test system: cancer patients; experiment: Clinical efficacy of Compound 1 in cancer patients; parameters: key to CT Observation: Stable Disease, or SD, signifies that there has been no significant decrease or increase in the size of target lesions (including tumors), based on the smallest sum lesion diameter (LD); Progressive Disease, or PD, signifies that there has been an increase of at least 20% in the sum of the LD of targeted lesions; conditions: for CT Observation: per patient
Description: Stable Disease, or SD, signifies that there has been no significant decrease or increase in the size of target lesions (including tumors), based on the smallest sum lesion diameter (LD). Progressive Disease, or PD, signifies that there has been an increase of at least 20% in the sum of the LD of targeted lesions.
Patients are treated with Compound 1, given orally at the indicated daily dose. […] Although patients were not selected for high expression of FGFR1OP2 and FGFR1, the clinical response appears related to the expression levels of FGFR1OP2 and FGFR1. Squamous tumors seem particularly susceptible, as both patients with squamous tumors are SDs. Two of the three patients with SD are in 100 mg/day group, one of whom has 20% tumor reduction observed at the second and the fourth cycle by CT examination and is still under treatment. Adverse events are mild, so further dose escalation above 120 mg/day can be considered.

[5] = test system: Cholangiocarcinoma (patient tumor cells in mini-PDX capsules); experiment: Mini-PDX assay, cholangiocarcinoma; conditions: Compound 1 12 mg per kg oral once daily 7 days, effective = P ≤ 0.05, per patient sample
Description: as §1, §2, §3

[6] = test system: Gastric Cancer (patient tumor cells in mini-PDX capsules); experiment: Mini-PDX assay, gastric cancer; conditions: Compound 1 12 mg per kg oral once daily 7 days, effective = P ≤ 0.05, per patient sample
Description: as §1, §2, §3

Compound: COc1cc(F)ccc1-c1c(C)sc2cnc(Nc3cnn(C4CCNCC4)c3)nc12 [Compound 1]
- Efficacy (P ≤ 0.05) [1]: Non-effective; also recorded: effective
- share of tumor samples from patients in which Compound 1 is effective ([2]; 30 tumor samples, mini-PDX, 13/30): 43%
- Tumor cell growth inhibition (TCGI) ([2]; FIG. 1, initial screen of 4 samples, 7 days oral administration, compared to placebo): effective TCGI
- Efficacy (P ≤ 0.05) [3]: Non-effective; also recorded: effective
- CT Observation ([4]; 40 mg oral daily dose): SD
- CT Observation ([4]; 70 mg oral daily dose): PD (Progressive Disease, or PD, signifies that there has been an increase of at least 20% in the sum of the LD of targeted lesions)
- tumor reduction by CT examination ([4]; 100 mg oral daily dose, CRC, observed at second and fourth cycle): 20%
- CT Observation ([4]; 100 mg oral daily dose): SD (2×) and PD (Progressive Disease, or PD, signifies that there has been an increase of at least 20% in the sum of the LD of targeted lesions)
- Adverse events ([4]; patients, 40-100 mg oral daily dose): mild
- stabilizes progression of the cancer (patients with SD) ([4]; seven patients, 40-100 mg oral daily dose): three of the seven patients
- Efficacy (P ≤ 0.05) [5]: Non-effective; also recorded: effective
- Efficacy (P ≤ 0.05) [6]: Non-effective; also recorded: effective
